Source: US10869931B2, “Polyethylene glycol-modified angiogenesis inhibitor HM-1 and application thereof” (NANJING ANJI BIOLOGICAL TECHNOLOGY CO.,LTD, priority 2016, dated 2020)
Where no end group is shown, it is not given here.

Tests used:
[1] = tested on: Head and neck cancer tumor cells; assay: MTT proliferation inhibition, head and neck cancer cells; type: cell-based, human; parameters: concentration or dose not given beside the values; details: 48 h
Method: (§1) The activity of mPEG-HM-1 to inhibit the growth of various tumor cells was examined by MTT assay. The tumor cells were cultured to a concentration of 90% or more in a 37° C., 5% CO2 incubator and collected by trypsinization. The cells were resuspended in the culture medium and counted under a microscope to adjust the cell concentration to 2×10^4 cells/mL, the cell suspension was inoculated into a 96-well plate at 100 μL/well and incubated overnight at 37° C. in a 5% CO2 incubator. mPEG-HM-1 was diluted with the culture solution to each predetermined concentration. Docetaxel is diluted to the final concentration with the culture medium. After the cells were fully attached, each dilution was added to a 96-well plate (100 μL/well). The mPEG-HM-1 dilution was added as a drug-administered group, and docetaxel was added as a positive control group, and a culture solution without any drug was used as a negative control group. Incubate for 48 h at 37° C. in a 5% CO2 incubator. 5 mg/mL of MTT was added to a 96-well plate at 20 μL per well, and incubation was continued for 4 hours. The medium was aspirated, dissolved in 150 μL of DMSO per well, and gently mixed by shaking for 10 min. The absorbance was measured at a measurement wavelength of 570 nm and a reference wavelength of 630 nm using a microplate reader, and the rate of growth inhibition (proliferation inhibition, PI) was calculated. The formula is as follows: PI (%)=1−administration group/negative group
(§2) The test was repeated 3 times independently, and the results obtained by the test were expressed as mean±SD, and the test results are shown in Table 15 to Table 18.

[2] = tested on: Thyroid cancer tumor cells; assay: MTT proliferation inhibition, thyroid cancer cells; type: cell-based, human; parameters: concentration or dose not given beside the values; details: 48 h
Method: as §1, §2

[3] = tested on: Pancreatic cancer tumor cells; assay: MTT proliferation inhibition, pancreatic cancer cells; type: cell-based, human; parameters: concentration or dose not given beside the values; details: 48 h
Method: as §1, §2

Lung cancer tumor cells = assay: MTT proliferation inhibition, lung cancer cells; type: cell-based, human; parameters: concentration or dose not given beside the values; details: 48 h
Method: as §1, §2

[4] = tested on: Kidney cancer tumor cells; assay: MTT proliferation inhibition, kidney cancer cells; type: cell-based, human; parameters: concentration or dose not given beside the values; details: 48 h
Method: as §1, §2

[5] = tested on: Ovarian cancer tumor cells; assay: MTT proliferation inhibition, ovarian cancer cells; type: cell-based, human; parameters: concentration or dose not given beside the values; details: 48 h
Method: as §1, §2

[6] = tested on: Cervical cancer tumor cells; assay: MTT proliferation inhibition, cervical cancer cells; type: cell-based, human; parameters: concentration or dose not given beside the values; details: 48 h
Method: as §1, §2

[7] = tested on: Bladder Cancer tumor cells; assay: MTT proliferation inhibition, bladder cancer cells; type: cell-based, human; parameters: concentration or dose not given beside the values; details: 48 h
Method: as §1, §2

Melanoma tumor cells = assay: MTT proliferation inhibition, melanoma cells; type: cell-based, human; parameters: concentration or dose not given beside the values; details: 48 h
Method: as §1, §2

mouse spleen lymphocytes = assay: ConA-stimulated mouse spleen lymphocyte proliferation (MTT); type: cell-based; details: ConA 5 μg/mL, 48 h
Method: Tris-NH4Cl was used to break the red blood cells, and the cells were allowed to stand in an ice water bath for 4 min, centrifuged (1000 rpm×5 min), the supernatant was discarded, and the cells were washed twice with sterile PBS. Finally, cells were suspended in RPMI 1640 medium (5 mL) supplemented with 10% calf serum, counted, adjusted to a cell concentration of 5×10^6/mL, and cultured in a 96-well culture plate The test group consisted of blank control group, concanavalin A (ConA) group, dexamethasone (Dex) group (0.02 mg/mL) and mPEG-HM-1 group. […] The cells were cultured in a 37° C. cell culture chamber for 48 h. After the completion of the culture, 20 μL of MTT was added to each well, and the culture was continued for 4 h. Finally, all the solutions in each well were discarded, 100 μL of DMSO was added to each well, and the mixture was shaken and detected by a microplate reader OD value at 570 nm, 5 parallels per hole.

[8] = tested on: IL-1β production by mouse peritoneal macrophages; assay: IL-1β production by mouse peritoneal macrophages (ELISA); type: cell-based; details: 48 h
Method: (1) IL-1β production: mice were intraperitoneally injected with 1 mL of broth (containing 6%) starch, and three days later, the mouse peritoneal macrophages were aseptically taken, washed twice with 1640 medium, and the cell concentration was adjusted to 2×10^6 cells/mL, inject into a 24-well culture plate, 1 mL per well, incubate for 3 hours in a cell culture incubator, shake once every 30 minutes, and allow the cells to fully adhere. Then, it was washed twice with the culture solution to remove unattached cells. The blank group was added with PBS, the positive group was added with the positive drug dexamethasone (Dex), the model group was not administered, to the experimental group was added low, medium and high three concentrations of mPEG-HM-1, and the culture was continued for 48 hours after the administration, 1000 r/min. Centrifuge for 15 min. The supernatant was taken as a sample for testing activity of IL-1β.
(2) Determination of IL-1β content: using R&D mouse IL-1β enzyme-linked immunosorbent assay kit, according to the kit instructions as follows: respectively, the tested samples and different concentrations of standard products, sealed with sealing tape the reaction well and incubated at 37° C. for 90 min; the plate was washed four times; the biotinylated antibody working solution (100 μL/well) was added, and the reaction well was sealed with sealing paper, incubated at 37° c. for 60 min; the plate was washed four times; Add the enzyme conjugate working solution (100 μL/well), seal the reaction well with sealing paper, incubate at 37° C. for 30 min; wash the plate four times; add color reagent (100 μL/well), incubate at 37° C. 10-20 min, add stop solution (100 μL/well), mix and measure OD450 value.

Substance	rate of growth inhibition [1] [%]	rate of growth inhibition [2] [%]	rate of growth inhibition [3] [%]	rate of growth inhibition (Lung cancer tumor cells) [%]	rate of growth inhibition [4] [%]	rate of growth inhibition [5] [%]	rate of growth inhibition [6] [%]	rate of growth inhibition [7] [%]	rate of growth inhibition (Melanoma tumor cells) [%]	A570 nm/A630 nm (mouse spleen lymphocytes; 20 μg/mL)	Inhibition Rate of spleen lymphocyte proliferation (mouse spleen lymphocytes; 20 μg/mL) [%]	A570 nm/A630 nm (mouse spleen lymphocytes; 40 μg/mL)	Inhibition Rate of spleen lymphocyte proliferation (mouse spleen lymphocytes; 40 μg/mL) [%]	A570 nm/A630 nm (mouse spleen lymphocytes; 80 μg/mL)	Inhibition Rate of spleen lymphocyte proliferation (mouse spleen lymphocytes; 80 μg/mL) [%]	IL-1β ([8]; 20 μg/mL) [pg/mL]	Inhibition Rate of IL-1β production ([8]; 20 μg/mL) [%]	IL-1β ([8]; 40 μg/mL) [pg/mL]	Inhibition Rate of IL-1β production ([8]; 40 μg/mL) [%]	IL-1β ([8]; 80 μg/mL) [pg/mL]	also measured
mPEG-bALD20k-Arg-Gly-Ala-Asp-Arg-Ala-Gly-Gly-Gly-Gly-Arg-Gly-Asp ({mPEG‑bALD 20 kDa}-RGADRAGGGGRGD) [mPEG-bALD20k-HM-1]	45.13 ± 12.38	49.38 ± 13.20	69.54 ± 18.37	65.31 ± 15.54	66.81 ± 19.48	75.65 ± 20.09	78.57 ± 20.11	45.24 ± 10.69	80.75 ± 22.94	0.6104 ± 0.1005	12.02	0.4988 ± 0.1173	28.10	0.4453 ± 0.1054	35.82	738.66 ± 12.81	19.90	640.26 ± 14.28	30.57	487.37 ± 12.06	Inhibition Rate of IL-1β production ([8]; 80 μg/mL): 47.15%
mPEG-bALD10k-Arg-Gly-Ala-Asp-Arg-Ala-Gly-Gly-Gly-Gly-Arg-Gly-Asp ({mPEG‑bALD 10 kDa}-RGADRAGGGGRGD) [mPEG-bALD10k-HM-1]	49.01 ± 12.14	55.74 ± 13.13	75.23 ± 16.41	66.72 ± 14.42	70.19 ± 18.11	80.35 ± 20.53	80.08 ± 18.34	49.61 ± 12.12	82.33 ± 20.08	0.5469 ± 0.1122	21.18	0.4666 ± 0.1040	32.75	–	–	633.90 ± 14.73	31.26	460.53 ± 10.42	–	–	A570 nm/A630 nm (mouse spleen lymphocytes; 10 μg/mL): 0.6179 ± 0.1049; Inhibition Rate of spleen lymphocyte proliferation (mouse spleen lymphocytes; 10 μg/mL): 10.94%; IL-1β ([8]; 10 μg/mL): 720.77 ± 16.65 pg/mL; Inhibition Rate of IL-1β production ([8]; 10 μg/mL): 21.84%
mPEG-SC20k-Arg-Gly-Ala-Asp-Arg-Ala-Gly-Gly-Gly-Gly-Arg-Gly-Asp ({mPEG‑SC 20 kDa}-RGADRAGGGGRGD) [mPEG-SC20k-HM-1]	49.26 ± 10.32	50.78 ± 13.46	62.63 ± 18.13	53.87 ± 15.66	67.29 ± 18.16	70.94 ± 20.65	62.93 ± 20.09	50.39 ± 11.73	72.14 ± 20.69	0.6213 ± 0.0996	9.91	0.5444 ± 0.1120	21.06	0.4741 ± 0.1270	31.25	761.42 ± 16.96	18.74	653.20 ± 18.59	30.29	512.27 ± 10.50	Inhibition Rate of IL-1β production ([8]; 80 μg/mL): 45.33%
